According to ChEMBL document CHEMBL1201862, “PubChem BioAssay data set” (2004):
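Each compound was tested at five concentrations against cells in 96-well plates for 48 hours. GI50 marks 50% less growth.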 Active and inactive are the calls of the source. Cut-off read from the data, not from the text of the source: active = GI50 up to about 1.1 µM and inactive = higher.

Tests used:
Experiment in all cases: NCI-60 cell line screen, 48 h
A549 = test system: A549
BT-549 = test system: BT-549
DU-145 = test system: DU-145
EKVX = test system: EKVX
HCT-116 = test system: HCT-116
HOP-62 = test system: HOP-62
IGROV-1 = test system: IGROV-1
MCF7 = test system: MCF7
Malme-3M = test system: Malme-3M
NCI-H226 = test system: NCI-H226
OVCAR-4 = test system: OVCAR-4
OVCAR-5 = test system: OVCAR-5
PC-3 = test system: PC-3
SF-295 = test system: SF-295
SK-MEL-2 = test system: SK-MEL-2
SK-MEL-5 = test system: SK-MEL-5
T47D = test system: T47D
TK-10 = test system: TK-10
UACC-257 = test system: UACC-257
UO-31 = test system: UO-31

Structure (SMILES)	GI50 (A549)	GI50 (BT-549)	GI50 (DU-145)	GI50 (EKVX)	GI50 (HCT-116)	GI50 (HOP-62)	GI50 (IGROV-1)	GI50 (MCF7)	GI50 (Malme-3M)	GI50 (NCI-H226)	GI50 (OVCAR-4)	GI50 (OVCAR-5)	GI50 (PC-3)	GI50 (SF-295)	GI50 (SK-MEL-2)	GI50 (SK-MEL-5)	GI50 (T47D)	GI50 (TK-10)	GI50 (UACC-257)	GI50 (UO-31)
COc1cc2cc(C(=O)N3CC(CCl)c4c3cc(NC(=O)C(C)Nc3c([N+](=O)[O-])cc(C(=O)NCCN(C)C)cc3[N+](=O)[O-])c3ccccc43)[nH]c2c(OC)c1OC (stereo unspecified)	0.0682 µM (active)	0.187 µM (active)	< 0.0182 µM (active)	0.229 µM (active)	0.0743 µM (active)	0.0619 µM (active)	0.12 µM (active)	0.0118 µM (active)	0.129 µM (active)	0.113 µM (active)	0.191 µM (active)	0.0555 µM (active)	0.177 µM (active)	0.129 µM (active)	0.0675 µM (active)	0.104 µM (active)	0.046 µM (active)	0.333 µM (active)	0.182 µM (active)	0.451 µM (active)
C=C1C(=O)O[C@H]2[C@H]3O[C@@H](C[C@@H]12)[C@](C)(O)CC[C@@H]1O[C@@]1(C)CCC[C@H]3C	25.5 µM (inactive)	12.2 µM (inactive)	12.6 µM (inactive)	15.6 µM (inactive)	14.2 µM (inactive)	78.3 µM (inactive)	14.7 µM (inactive)	21.4 µM (inactive)	12 µM (inactive)	23.3 µM (inactive)	16.5 µM (inactive)	36.2 µM (inactive)	32 µM (inactive)	68.9 µM (inactive)	15.9 µM (inactive)	14.7 µM (inactive)	25.5 µM (inactive)	17.1 µM (inactive)	22.9 µM (inactive)	22.2 µM (inactive)
COc1ccc(N2CCN(Cc3c(C(C)=O)[n+]([O-])c4ccccc4[n+]3[O-])CC2)cc1	40.3 µM (inactive)	17 µM (inactive)	> 100 µM (inactive)	75.3 µM (inactive)	49.5 µM (inactive)	16.4 µM (inactive)	32.4 µM (inactive)	24.2 µM (inactive)	12 µM (inactive)	29 µM (inactive)	38.3 µM (inactive)	68.2 µM (inactive)	87.5 µM (inactive)	51.8 µM (inactive)	54.2 µM (inactive)	37.1 µM (inactive)	57.3 µM (inactive)	9.29 µM (inactive)	29.8 µM (inactive)	64.6 µM (inactive)
O=C1C(O)=C(C(C2=C(O)C(=O)c3ccccc3C2=O)c2ccc(Cl)cc2)C(=O)c2ccccc21	19.3 µM (inactive)	15.6 µM (inactive)	5.42 µM (inactive)	13.6 µM (inactive)	6.34 µM (inactive)	6.47 µM (inactive)	8.2 µM (inactive)	5.13 µM (inactive)	5.25 µM (inactive)	28.9 µM (inactive)	6.24 µM (inactive)	7.93 µM (inactive)	18.8 µM (inactive)	5.78 µM (inactive)	8.36 µM (inactive)	6.67 µM (inactive)	21 µM (inactive)	14.7 µM (inactive)	5 µM (inactive)	10.1 µM (inactive)
Cc1noc(NS(=O)(=O)c2ccc(NC(=O)c3ccc4[nH]c5ccccc5c(=O)c4c3)cc2)c1C	> 100 µM (inactive)	33.3 µM (inactive)	> 100 µM (inactive)	80.4 µM (inactive)	47.9 µM (inactive)	50.1 µM (inactive)	> 100 µM (inactive)	30.5 µM (inactive)	27 µM (inactive)	> 100 µM (inactive)	39.4 µM (inactive)	> 100 µM (inactive)	36.1 µM (inactive)	42.2 µM (inactive)	32.1 µM (inactive)	44 µM (inactive)	26.1 µM (inactive)	> 100 µM (inactive)	> 100 µM (inactive)	75 µM (inactive)
O=C(O)CCC1(C(=O)O)CCC(=O)c2ccccc21 (stereo unspecified)	> 100 µM (inactive)	> 100 µM (inactive)	> 100 µM (inactive)		> 100 µM (inactive)	> 100 µM (inactive)	> 100 µM (inactive)	> 100 µM (inactive)	> 100 µM (inactive)	> 100 µM (inactive)	> 100 µM (inactive)	> 100 µM (inactive)	> 100 µM (inactive)	> 100 µM (inactive)	> 100 µM (inactive)	> 100 µM (inactive)	> 100 µM (inactive)	> 100 µM (inactive)	> 100 µM (inactive)	> 100 µM (inactive)
Oc1cc(F)cc2cccnc12	1.02 µM (active)	0.968 µM (active)	5.58 µM (inactive)	0.418 µM (active)	1.89 µM (inactive)	2.56 µM (inactive)	0.889 µM (active)	0.0689 µM (active)	0.628 µM (active)	3.54 µM (inactive)	0.435 µM (active)	3.29 µM (inactive)	1.27 µM (inactive)	1.1 µM (active)	16.4 µM (inactive)	0.998 µM (active)	1.3 µM (inactive)	17.9 µM (inactive)	0.402 µM (active)	0.652 µM (active)
O=C(CSCC(=O)N/N=C\c1cc(Cl)cc(Cl)c1O)N/N=C\c1cc(Cl)cc(Cl)c1O	18.7 µM (inactive)	4.81 µM (inactive)	8.91 µM (inactive)	4.45 µM (inactive)	2.9 µM (inactive)	5.69 µM (inactive)	3.37 µM (inactive)	7.29 µM (inactive)	1.87 µM (inactive)	3.62 µM (inactive)	2.42 µM (inactive)	10.4 µM (inactive)	4.27 µM (inactive)	6.53 µM (inactive)	2.51 µM (inactive)	3.42 µM (inactive)	3.08 µM (inactive)	3.63 µM (inactive)	5.28 µM (inactive)	4 µM (inactive)
NCCSCC(N)C(=O)O (stereo unspecified)	47.6 µM (inactive)	> 100 µM (inactive)	> 90.6 µM (inactive)	> 497 µM (inactive)	39.7 µM (inactive)	> 497 µM (inactive)	> 87.5 µM (inactive)	46.7 µM (inactive)	> 66.2 µM (inactive)	> 497 µM (inactive)	> 497 µM (inactive)	> 497 µM (inactive)	> 100 µM (inactive)	> 497 µM (inactive)	> 497 µM (inactive)	> 63.7 µM (inactive)	> 83 µM (inactive)	> 497 µM (inactive)	> 497 µM (inactive)	85.5 µM (inactive)
CSc1[nH]nc(N)c1C(=O)Nc1ccc(C)cc1	51.6 µM (inactive)	90.6 µM (inactive)	22.3 µM (inactive)	32.2 µM (inactive)	75.2 µM (inactive)	> 100 µM (inactive)		39.5 µM (inactive)	89.1 µM (inactive)	> 100 µM (inactive)	46.2 µM (inactive)	54.7 µM (inactive)	33.7 µM (inactive)	65 µM (inactive)	74.1 µM (inactive)	31 µM (inactive)	18.4 µM (inactive)	43 µM (inactive)	62.4 µM (inactive)	36.9 µM (inactive)
O=C(NC(=O)c1c(Cl)nc2sccn12)Nc1ccc(Cl)cc1	81.3 µM (inactive)	28.4 µM (inactive)	> 83.4 µM (inactive)	> 91.6 µM (inactive)	69.2 µM (inactive)	19.5 µM (inactive)	49.4 µM (inactive)	15.5 µM (inactive)	84.3 µM (inactive)	45.2 µM (inactive)	75.3 µM (inactive)	> 100 µM (inactive)	53 µM (inactive)	33.6 µM (inactive)	59.3 µM (inactive)	> 88.3 µM (inactive)	13.7 µM (inactive)	35.6 µM (inactive)	> 100 µM (inactive)	67.1 µM (inactive)
COc1cc2c(cc1Cl)[n+]([O-])c(C#N)c(N1CCN(c3ccc([N+](=O)[O-])cc3)CC1)[n+]2[O-]	11.6 µM (inactive)	15 µM (inactive)	13.8 µM (inactive)	28.6 µM (inactive)	24 µM (inactive)	8.34 µM (inactive)	2.17 µM (inactive)	6 µM (inactive)	14.8 µM (inactive)	> 100 µM (inactive)	30 µM (inactive)	67.8 µM (inactive)	17.9 µM (inactive)	12.4 µM (inactive)	49.3 µM (inactive)	16.6 µM (inactive)	3.48 µM (inactive)	27.3 µM (inactive)	14.8 µM (inactive)	0.938 µM (active)
O=C(/C(Cl)=C/c1ccccc1)c1ccccc1	10.9 µM (inactive)	2.22 µM (inactive)	6.32 µM (inactive)	11.2 µM (inactive)	1.21 µM (inactive)	19.2 µM (inactive)		2.05 µM (inactive)	2 µM (inactive)	7.26 µM (inactive)	4.41 µM (inactive)	4.42 µM (inactive)	2.61 µM (inactive)	17.5 µM (inactive)	13.1 µM (inactive)	3.11 µM (inactive)	4.07 µM (inactive)	3.21 µM (inactive)	6.9 µM (inactive)	2.32 µM (inactive)
C=C(Br)COc1ccc2c(C)cc(=O)oc2c1	61.5 µM (inactive)	> 100 µM (inactive)	> 100 µM (inactive)	43.3 µM (inactive)	59.3 µM (inactive)	69.8 µM (inactive)	49.3 µM (inactive)	< 0.01 µM (active)	> 100 µM (inactive)	> 100 µM (inactive)	50.7 µM (inactive)	> 100 µM (inactive)	> 100 µM (inactive)		> 100 µM (inactive)	14.6 µM (inactive)	20.2 µM (inactive)	45.9 µM (inactive)	73.5 µM (inactive)	64.1 µM (inactive)
